Assays:
human ADORA2A = target: T1, human ADORA2A (Homo sapiens, UniProt P29274); assay: Calcium flow test (FLIPR), ADORA2A stably transfected CHO; type: cell-based; conditions: Table 9
T1 construct: host or cells: CHO
Excerpt: The binding of the A2AR agonist to A2AR could activate a downstream pathway to increase the intracellular calcium ion concentration. The antagonist would competitively occupy the binding site where the agonist binds to A2AR, thereby interrupting the intracellular signal transduction and leading to a change in the intracellular calcium ion concentration. By detecting the strength of the intracellular calcium ion signal, the antagonistic activities of the compound on human ADORA1, ADORA2A, ADORA2B and ADORA3 adenosine receptors were determined. […]
7) The FLIPR instrument software was operated; following a set program, 10 μL of experimental buffer salt solution was added to the cell plate; and fluorescence signals were read. Then, 10 μL of the reference compound of agonist at a predetermined concentration was added to the cell plate, and the fluorescence signals were read. After reading, data was exported by means of “Max-Min” and “Read 91 to Maximum allowed” in the software, the EC80 of each cell line was calculated, and an agonist with a concentration of 6×EC80 was prepared.
9) The FLIPR instrument software was operated; following a set program, 10 μL of the test compound and 10 μL of the reference compound were added at a predetermined concentration to the cell plate; and the fluorescence signals were read. […]

[1] = target: T2, Human adenosine ADORA3 receptor membrane protein (Homo sapiens, UniProt P0DMS8); assay: Radioisotope ligand competitive binding, ADORA3 ([3H] HEMADO); conditions: ADORA3 (IC50, nM, n = 3), binding test
T2 construct: purchased PerkinElmer ES-012-M400UA
T2 sequence (P0DMS8 1-318): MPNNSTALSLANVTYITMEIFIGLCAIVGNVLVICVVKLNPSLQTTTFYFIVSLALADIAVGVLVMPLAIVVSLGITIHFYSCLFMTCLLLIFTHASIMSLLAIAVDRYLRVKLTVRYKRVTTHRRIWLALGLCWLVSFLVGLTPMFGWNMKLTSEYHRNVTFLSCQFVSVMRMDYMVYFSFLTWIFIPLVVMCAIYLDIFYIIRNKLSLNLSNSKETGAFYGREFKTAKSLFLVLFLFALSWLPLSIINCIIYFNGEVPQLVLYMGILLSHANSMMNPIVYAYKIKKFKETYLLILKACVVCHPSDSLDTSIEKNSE
Description: ADORA3: 25 mM HEPES pH 7.4, 10 mM MgCl2, 1 mM CaCl2, 0.5% BSA
4) Preparation of compounds: the test compounds and the reference compounds were separately diluted with 100% DMSO. For the test compounds, the initial concentration was 10 μM, with double secondary wells; 4-fold gradient dilution was carried out at 10 points; and the final working concentration was 0.038 nM-10 μM (for the second and third detection of the test compound against an ADORA2A target, the initial concentration was 2 μM, with double secondary wells, 4-fold gradient dilution was carried out at 10 points, and the final working concentration was 0.0076 nM-2 μM). For the ADORA1, ADORA2A, ADORA2B, and ADORA3 reference compounds, the initial concentration was 1 μM, with double secondary wells, 4-fold gradient dilution was carried out at 10 points, and the final working concentration was 0.0038 nM-1 μM.
1 μL of a sample to be tested and 1 μL of a reference compound were added to a 96-well plate in sequence. […] 100 μL of cells and 100 μL of isotopes were added to all experimental wells. The 96-well plate was sealed; ADORA1, ADORA2B, and ADORA3 were incubated for 1 hour on a shaker (300 rpm) at room temperature (22° C.); and ADORA2A was incubated for 2 hours on a shaker (300 rpm) at room temperature (22° C.). At the same time, a GF/C filter plate was soaked with ADORA1, ADORA2A, ADORA2B, and ADORA3 by using 0.3% PEI for at least 30 minutes at room temperature, at 50 μL/well. After the incubation was completed, the incubated reaction system was collected onto the GF/C filter plate with a Harvester, washed 4 times and then dried for 0.5 hours in an oven at 50° C. The bottom of the dried GF/C filter plate was sealed with a film, 50 μL of scintillation solution was added to each well, which was then sealed with a Top-seal-A film. With Microbeta readings, the data was analyzed by GraphPad Prism 5.0.
% Inhibition=100×(1−(Sample_raw value−Low control_Average)/(High control_Average−Low control_Average))
The data was fitted with “log(inhibitor) vs response-variable slope” in GraphPad Prism 5.0 to obtain IC50.

T1 sequence (P29274 whole entry): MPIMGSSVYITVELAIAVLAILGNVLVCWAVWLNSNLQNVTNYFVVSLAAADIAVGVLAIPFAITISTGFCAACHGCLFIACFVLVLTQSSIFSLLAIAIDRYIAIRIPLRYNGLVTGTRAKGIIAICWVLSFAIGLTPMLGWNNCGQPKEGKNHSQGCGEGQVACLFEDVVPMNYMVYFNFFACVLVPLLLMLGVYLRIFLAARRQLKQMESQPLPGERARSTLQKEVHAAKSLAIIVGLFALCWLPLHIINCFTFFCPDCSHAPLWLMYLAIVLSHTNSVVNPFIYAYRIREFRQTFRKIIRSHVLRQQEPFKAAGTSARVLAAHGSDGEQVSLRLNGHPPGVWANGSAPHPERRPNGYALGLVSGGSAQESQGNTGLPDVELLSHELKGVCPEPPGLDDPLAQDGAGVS

Structure (SMILES) | IC50 (human ADORA2A) [nM] | IC50 ([1]; Table 10 (IC50)) [nM] | IC50 ([1]; Table 11) [nM]
Nc1nc(NCCc2ccc(NC3COC3)cc2)nc2nc(-c3ccco3)nn12 [Compound 22, 2-(furan-2-yl)-N5-(4-(oxetan-3-ylamino)phenethyl)-[1,2,4]triazolo[1,5-a][1,3,5]triazine-5,7-diamine] | 0.35 ± 0.07 | 872 ± 492 | 703
Cn1nnc(-c2ccc(CCNc3nc(N)n4nc(-c5ccco5)nc4n3)cc2)n1 [Compound 40, N5-(4-(2-methyl-2H-tetrazol-5-yl)phenethyl)-2-(furan-2-yl)-[1,2,4]triazolo[1,5-a][1,3,5]triazine-5,7-diamine] | 1.17 ± 0.62 | 2000 ± 1030 | 1610

— patent US20230048888A1, “USE OF TRIAZOLOTRIAZINE DERIVATIVE IN TREATMENT OF DISEASES” (ZHEJIANG VIMGREEN PHARMACEUTICALS, LTD., priority 2019, published 2023)
